In patent publication US20260355191A1, “PAN-RAS INHIBITOR COMPOUND” (ADLAI NORTYE BIOPHARMA CO., LTD., priority 2024, published 2026):

Tests used:
PSN1 = assay: In vitro cell proliferation inhibition assay (CellTiter-Glo), PSN1; format: cell-based; details: PSN1, KRAS (p.G12R), 72 h; read-out: IC50, antiproliferative activity
Experimental: (§1) Due to the diversity of RAS mutations, and in order to evaluate the activity of the compounds in different RAS mutant cell lines, we selected cell lines with KRAS^G12D, KRAS^G12V, KRAS^G12c, NRAS^q61L, KRAS^G13D, KRAS^G12R, and KRAS^WT mutations (see the table below for in vitro activity evaluation and screening of the compounds.
(§2) According to the doubling time of different cell lines, different numbers of cells (1000-5000 cells/well) were seeded into 96-well plates containing 180 μL of the corresponding culture medium, and incubated overnight in a cell incubator at 37 °C with 5% C02. On the following day, the test compounds were pre-diluted in the culture medium in a 3-fold serial dilution series, with the highest concentration being […], resulting in 10 concentration gradients in total. Subsequently, 20 μL of culture medium containing the compounds at different concentrations was added to the cells in the 96-well plates, ensuring a final compound concentration of up to 10 μM, with 10 concentrations in 3-fold dilution. After co-incubation of the cells with the compounds for 72 h, the 96-well plates were removed from the incubator and equilibrated at room temperature for 30 min. Then, 25 μL of CellTiter-Glo® Reagent was added to each well and mixed thoroughly, followed by incubation at room temperature for 10 min. Subsequently, 100 μL of the samples was transferred to white 96-well plates (OptiPlate™-96, PerkinElmer), and […] signal values were read using a multifunctional microplate reader (SpectraMax i3x, Molecular Devices). The signal values were then normalized, and curve fitting was performed using a four-parameter logistic regression equation to calculate the half maximal inhibitory concentration (IC50) of the compounds against the cell lines.

SW480 = assay: In vitro cell proliferation inhibition assay (CellTiter-Glo), SW480; format: cell-based; details: SW480, KRAS (p.G12V), 72 h; read-out: IC50, antiproliferative activity
Experimental: as §1, §2

[1] = biological target: ternary complex comprising RAS and CypA; KRAS^G12D (Homo sapiens, UniProt P01116+P62937, G12D); assay: Ternary complex binding assay (BLI), KRAS G12D; details: GMPPNP-loaded KRAS^G12D, fixed concentration of CypA, pH 7.4, read-out: KD2 (ternary complex equilibrium dissociation constant)
ternary complex comprising RAS and CypA; KRAS^G12D, sequence (P01116 1-188 isoform P01116-2 G12D): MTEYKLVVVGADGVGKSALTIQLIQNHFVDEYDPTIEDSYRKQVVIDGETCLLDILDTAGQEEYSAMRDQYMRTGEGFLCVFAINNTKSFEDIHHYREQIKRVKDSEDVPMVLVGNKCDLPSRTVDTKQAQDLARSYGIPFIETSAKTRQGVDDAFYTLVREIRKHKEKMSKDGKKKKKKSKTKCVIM
ternary complex comprising RAS and CypA; KRAS^G12D, sequence (P62937 whole entry): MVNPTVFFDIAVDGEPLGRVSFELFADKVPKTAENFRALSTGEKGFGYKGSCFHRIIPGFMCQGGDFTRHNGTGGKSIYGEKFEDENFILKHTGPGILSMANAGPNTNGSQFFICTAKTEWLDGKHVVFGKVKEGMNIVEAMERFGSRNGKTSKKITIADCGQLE
Experimental: (§3) To evaluate the ability of the test compounds to induce the formation of a ternary complex comprising RAS and CypA, we employed a Bio-layer Interferometry (BLI) method (Octet R8) to monitor the binding kinetics among the compounds, RAS, and CypA, and to calculate the affinity of the ternary complex. GMPPNP was first incubated with RAS protein to load GMPPNP onto RAS. His-tagged RAS proteins with different mutations were then immobilized on NTA sensors, followed by baseline equilibration for 120 seconds in the assay buffer (20 mM HEPES, pH 7.4, 150 mM NaCl, 5 mM MgCl2, 1 mM TCEP, 5 μM GMPPNP, 0.01% Tween 20). The sensors were subsequently exposed to buffer containing various concentrations of the compounds and a fixed concentration of CypA, and the association phase of ternary complex formation was monitored in real time. Once binding reached a plateau, the sensors were transferred to compound- and CypA-free buffer to measure the dissociation phase. To ensure accuracy, DMSO normalization was performed, buffer composition was optimized to reduce non-specific binding, and both negative and positive controls were employed to verify assay specificity. Data were processed using Octet Analysis Studio 13.0, analyzed using a 1:1 binding model, and the association rate constant (ka), dissociation rate constant (kdis), and equilibrium dissociation constant (KD2) were calculated.

MV411 = assay: In vitro cell proliferation inhibition assay (CellTiter-Glo), MV411; format: cell-based; details: MV411, KRAS wild type, 72 h; read-out: IC50, antiproliferative activity
Experimental: as §2

HepG2 = assay: In vitro cell proliferation inhibition assay (CellTiter-Glo), HepG2; format: cell-based; details: HepG2, NRAS (p.Q61L), 72 h; read-out: IC50, antiproliferative activity
Experimental: as §1, §2

HCT116 = assay: In vitro cell proliferation inhibition assay (CellTiter-Glo), HCT116; format: cell-based; details: HCT116, KRAS (p.G13D), 72 h; read-out: IC50, antiproliferative activity
Experimental: as §1, §2

cyclophilin A (CypA) = biological target: T1, cyclophilin A (CypA) (Homo sapiens, UniProt P62937); assay: Binary complex binding assay (BLI); details: His-tagged CypA, pH 7.4, 1:1 binding model; for Kd: read-out: KD1 (binary complex equilibrium dissociation constant); for kon: read-out: ka (association rate constant); for koff: read-out: kdis (dissociation rate constant)
T1 construct: purchased R&D 3589-CAB
T1 sequence (P62937 whole entry): as above
Experimental: To evaluate the binding ability of the test compounds to cyclophilin A (CypA), we employed a Bio-layer Interferometry (BLI) method (Octet R8) to monitor the binding kinetics between the compounds and CypA, and to calculate the affinity of the binary complex. His-tagged CypA protein (3589-CAB, R&D) was first immobilized on an NTA sensor, followed by baseline equilibration for 120 seconds in the assay buffer (20 mM HEPES, pH 7.4, 150 mM NaCl, 5 mM MgCl2, 1 mM TCEP, 0.01% Tween 20). The sensor was then exposed to buffer solutions containing different concentrations of the compounds to monitor the association process in real time. When the high-concentration compound binding reached a plateau, the sensor was transferred to compound-free buffer to measure the dissociation process. To ensure data accuracy, DMSO normalization was performed, non-specific binding was minimized by buffer optimization, and negative and positive controls were set to verify assay specificity. Data were processed using Octet Analysis Studio 13.0, analyzed using a 1:1 binding model, and the association rate constant (ka), dissociation rate constant (kdis), and equilibrium dissociation constant (KD1) were calculated.

AsPC-1 = assay: In vitro cell proliferation inhibition assay (CellTiter-Glo), AsPC-1; format: cell-based; details: AsPC-1, KRAS (p.G12D), 72 h; read-out: IC50, antiproliferative activity
Experimental: as §1, §2

[2] = biological target: ternary complex comprising RAS and CypA; KRAS^G12V (Homo sapiens, UniProt P01116+P62937, G12V); assay: Ternary complex binding assay (BLI), KRAS G12V; details: GMPPNP-loaded KRAS^G12V, fixed concentration of CypA, pH 7.4, read-out: KD2 (ternary complex equilibrium dissociation constant)
ternary complex comprising RAS and CypA; KRAS^G12V, sequence (P01116 1-188 isoform P01116-2 G12V): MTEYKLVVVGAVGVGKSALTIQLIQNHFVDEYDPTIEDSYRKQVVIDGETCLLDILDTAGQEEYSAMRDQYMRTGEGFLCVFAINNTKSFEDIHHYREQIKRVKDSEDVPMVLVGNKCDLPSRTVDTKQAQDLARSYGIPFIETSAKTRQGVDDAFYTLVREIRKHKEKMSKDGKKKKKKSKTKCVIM
ternary complex comprising RAS and CypA; KRAS^G12V, sequence (P62937 whole entry): as the sequence (P62937 whole entry) above
Experimental: as §3

[3] = biological target: ternary complex comprising RAS and CypA; KRAS^WT (Homo sapiens, UniProt P01116+P62937); assay: Ternary complex binding assay (BLI), KRAS WT; details: GMPPNP-loaded KRAS^WT, fixed concentration of CypA, pH 7.4, read-out: KD2 (ternary complex equilibrium dissociation constant)
ternary complex comprising RAS and CypA; KRAS^WT, sequence (P01116 1-188 isoform P01116-2): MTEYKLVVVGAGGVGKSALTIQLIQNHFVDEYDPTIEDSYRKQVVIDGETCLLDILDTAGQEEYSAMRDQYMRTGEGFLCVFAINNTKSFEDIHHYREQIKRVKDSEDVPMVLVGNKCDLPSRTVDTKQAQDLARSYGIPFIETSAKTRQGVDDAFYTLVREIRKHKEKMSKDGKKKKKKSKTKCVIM
ternary complex comprising RAS and CypA; KRAS^WT, sequence (P62937 whole entry): as the sequence (P62937 whole entry) above
Experimental: as §3

H358 = assay: In vitro cell proliferation inhibition assay (CellTiter-Glo), H358; format: cell-based; details: H358, KRAS (p.G12C), 72 h; read-out: IC50, antiproliferative activity
Experimental: as §1, §2

| IC50 (SW480) | Kd [1] | IC50 (MV411) | IC50 (HepG2) | IC50 (HCT116) | Kd (cyclophilin A (CypA)) | kon (cyclophilin A (CypA)) | koff (cyclophilin A (CypA)) | IC50 (AsPC-1) | Kd [2] | Kd [3] | IC50 (H358) | ka (association rate constant) (cyclophilin A (CypA)) | SMILES | IC50 (PSN1) |
| --- | --- | --- | --- | --- | --- | --- | --- | --- | --- | --- | --- | --- | --- | --- |
| 0.11 nM | 27 nM | 0.66 nM | 0.66 nM | 0.02 nM | 8.6 nM | 200000 M⁻¹ s⁻¹ | 0.0017 s⁻¹ | 0.08 nM | 27 nM | 17 nM | 0.034 nM | – | CO[C@@H](C)c1ncc(-c2nnc(C3CCN(C4COC4)CC3)o2)cc1-c1c2c3cc(ccc3n1CC(F)(F)F)-c1csc(n1)C[C@H](NC(=O)[C@H]1C[C@@H]1C)C(=O)N1CCC[C@H](N1)C(=O)OCC(C)(C)C2 (atropisomer, axis not shown) [Compound 5, (1S,2S)—N-((6^3S,4S,Z)-1^2-(2-((S)-1-methoxyethyl)-5-(5-(1-(oxetan-3-yl)piperidin-4-yl)-1,3,4-oxadiazol-2-yl)pyridin-3-yl)-10,10-dimethyl-5,7-dioxo-1^1-(2,2,2-trifluoroethyl)-6^1,6^2,6^3,6^4,6^5,6^6-hexahydro-1^1H-8-oxa-2(4,2)-thiazola-1(5,3)-indola-6(1,3)-pyridazinacycloundecaphane-4-yl)-2-methylcyclopropane-1-carboxamide] | 0.03 nM |
| 0.14 nM | 19 nM | 0.49 nM | 0.05 nM | 0.7 nM | 16 nM | 230000 M⁻¹ s⁻¹ | 0.0037 s⁻¹ | 0.03 nM | – | – | 0.004 nM | – | CCn1c(-c2cc(-c3nnc(C4CCN(C5CN(C(C)C)C5)CC4)o3)cnc2[C@H](C)OC)c2c3cc(ccc31)-c1csc(n1)C[C@H](NC(=O)[C@H]1C[C@@H]1C)C(=O)N1CCC[C@H](N1)C(=O)OCC(C)(C)C2 (atropisomer, axis not shown) [Compound 7, (1S,2S)—N-((6^3S,4S,Z)-1^1-ethyl-1^2-(5-(5-(1-(1-isopropylazetidin-3-yl)piperidin-4-yl)-1,3,4-oxadiazol-2-yl)-2-((S)-1-methoxyethyl)pyridin-3-yl)-10,10-dimethyl-5,7-dioxo-6^1,6^2,6^3,6^4,6^5,6^6-hexahydro-1^1H-8-oxa-2(4,2)-thiazola-1(5,3)-indola-6(1,3)-pyridazinacycloundecaphane-4-yl)-2-methylcyclopropane-1-carboxamide] | 0.05 nM |
| 0.01 nM | 17 nM | 0.42 nM | 0.1 nM | 0.14 nM | 2.7 nM | – | 0.00057 s⁻¹ | 0.005 nM | 12 nM | 9.3 nM | 0.021 nM | 2.1E+05 1/[M*s] | CO[C@@H](C)c1ncc(-c2nnc(C3CCN(C4CN(C(C)C)C4)CC3)o2)cc1-c1c2c3cc(ccc3n1CC(F)(F)F)-c1csc(n1)C[C@H](NC(=O)[C@H]1[C@H](C)[C@@H]1C)C(=O)N1CCC[C@H](N1)C(=O)OCC(C)(C)C2 (atropisomer, axis not shown) [Compound 10, (1r,2R,3S)—N-((6^3S,4S,Z)-1^2-(5-(5-(1-(1-isopropylazetidin-3-yl)piperidin-4-yl)-1,3,4-oxadiazol-2-yl)-2-((S)-1-methoxyethyl)pyridin-3-yl)-10,10-dimethyl-5,7-dioxo-1^1-(2,2,2-trifluoroethyl)-6^1,6^2,6^3,6^4,6^5,6^6-hexahydro-1^1H-8-oxa-2(4,2)-thiazola-1(5,3)-indola-6(1,3)-pyridazinacycloundecaphane-4-yl)-2,3-dimethylcyclopropane-1-carboxamide] | 0.07 nM |
| 0.52 nM | 43 nM | 0.35 nM | 0.06 nM | 2.8 nM | 0.81 nM | 150000 M⁻¹ s⁻¹ | 0.00012 s⁻¹ | 0.21 nM | 25 nM | 27 nM | 0.001 nM | – | CCn1c(-c2cc(-c3nc(C4CCN(C5COC5)CC4)n(C)n3)cnc2[C@H](C)OC)c2c3cc(ccc31)-c1csc(n1)C[C@H](NC(=O)[C@H]1[C@H](C)[C@@H]1C)C(=O)N1CCC[C@H](N1)C(=O)OCC(C)(C)C2 (atropisomer, axis not shown) [Compound 4, (1r,2R,3S)—N-((6^3S,4S,Z)-1^1-ethyl-1^2-(2-((S)-1-methoxyethyl)-5-(1-methyl-5-(1-(oxetan-3-yl)piperidin-4-yl)-1H-1,2,4-triazol-3-yl)pyridin-3-yl)-10,10-dimethyl-5,7-dioxo-6^1,6^2,6^3,6^4,6^5,6^6-hexahydro-1^1H-8-oxa-2(4,2)-thiazola-1(5,3)-indola-6(1,3)-pyridazinacycloundecaphane-4-yl)-2,3-dimethylcyclopropane-1-carboxamide] | 0.07 nM |
